Measured values reported in US8049020B2 (priority 2006, dated 2011).

Legend:
murine splenocytes = experiment: ConA mitogen-stimulated proliferation of murine splenocytes ([3H]-thymidine incorporation); type: cell-based, mouse (BALB/c); conditions: for IC50: ConA 1 μg/ml, [3H]-thymidine incorporation, nonlinear regression, read-out: IC50 (dose of compound required to inhibit 50% of a proliferating population of murine splenocytes); for Effect on splenocyte proliferation (counts per minute vs concentration, FIG. 1 and 2): ConA-stimulated murine splenocytes, result in words
Description: I. ConA Mitogen-Stimulated Proliferation of Murine Splenocytes
The concanavalin A (ConA) cell proliferation assay was used to assess the effect of test homoserine lactone (HSL) compounds on T-cell activation and proliferation. Proliferation was assessed by the incorporation of [^3H]-thymidine into DNA. Eight-week-old female BALB/c mice were obtained from Harlan (Bicester, Oxon, UK) and given food and water ad libitum. Splenocyte suspensions were prepared by removing the spleens and placing them into RPMI 1640 medium. The spleens were forced through 70-μm-pore-size wire gauzes using the plunger from a 5-ml syringe to produce a single cell suspension. The cells were pelleted by centrifugation, and erythrocytes were lysed with 0.017 M Tris, 0.144 M ammonium chloride buffer, pH 7.2. Leucocytes were washed twice with RPMI 1640 medium with 2% (vol/vol) foetal calf serum (FCS) and resuspended in complete cell culture medium (CTCM) consisting of RPMI 1640 medium with 5% FCS, 2 mM L-glutamine, and 5×10^−5 M 2-mercaptoethanol. HSL compounds were tested at doubling down dilutions ranging from 1 mM to 0.1 μM in a final volume of 200 μl of CTCM, containing ConA (Sigma, Poole, UK) at 1 μg/ml and 100,000 spleen cells. Following incubation for 48 h at 37° C. in 5% CO2-air, 0.25 μCi[^3H]-thymidine (Amersham) in 10 μl volume made up in RPMI 1640 medium was added and the cells were incubated for a further 24 h. Cells were harvested onto fibreglass filters with a Packard filtermate harvester. After the addition of 25 μl of MicroScint-O (Packard) to each well, the filters were counted with the Packard TopCount scintillation counter.
Mitogen (Concanavalin A) induced murine splenocyte proliferation was indicated by the incorporation of tritated thymidine into the DNA in the mouse spleen cells as shown by counts per minute using the scintillation counter. The inhibitory effect of an HSL compound being tested on cell proliferation was indicated by a reduction in counts per minute.
The IC50 value, i.e. the dose of compound (micromolar) required to inhibit 50% of a proliferating population of murine splenocytes, was determined for 4-aza-OdDHL, 4-methyl-4-aza-OdDHL and for the compound N-(2-fluoro-4-aza-3-oxododecanoyl)-L-homoserine lactone (2-fluoro-4-aza-OdDHL).

[1] = test system: E. coli JM109 harbouring the reporter plasmid pSB1075 (P. aeruginosa lasR gene and lasI promoter fused to luxCDABE); experiment: Autoinducer activity: lux-based bioluminescence bioreporter assay; type: cell-based; conditions: 10 μM compound; 4 hours at 37° C.; relative to OdDHL
Description: Also determined for each of these compounds was the autoinducer activity as a measure of the ability of the compound to induce light production in a specifically designed bacterial bioreporter system. Autoinducer (A.I.) activity was measured by the ability of the test N-acyl homoserine lactone compound (AHL) to induce bioluminescence in E. coli containing a lux-based bioluminescence reporter plasmid. For detection of a long chain AHL, such as OdDHL, E. coli JM109 harbouring the reporter plasmid pSB1075 was used. This reporter contains the P. aeruginosa IasR gene and IasI promoter fused to IuxCDABE from P. luminescens and preferentially responds to AHLs with acyl chains of 10-14 carbons in length.
Bioassays were performed in 96 well microliter plates. Briefly, 10 μl of the compound being assessed was placed into a microliter well plate and serially diluted using LB broth to produce a concentration range from 100 μM to 100 fM. Similar dilutions were performed on a synthetic OdDHL and used as a positive control. One hundred microliters of an overnight biosensor strain was added to each well and light emission was measured following 4 hours incubation at 37° C. Light production was assessed as counts per second on Perkin Elmer TopCount apparatus calibrated to measure bioluminescence. Values are expressed as a percentage of the bioluminescence measured after exposure of the bioreporter to OdDHL for four hours at 37° C. Logarithmic regression analysis of the range of synthetic OdDHL dilutions typically returned coefficient of determination values above 0.96.

murine spleen cells = conditions: Infection and Immunity, vol. 66, No. 1, January 1998; cited from earlier work
[2] = test system: LPS-stimulated adherent murine peritoneal macrophages (TNF-α production); conditions: Infection and Immunity, vol. 66, No. 1, January 1998; cited from earlier work

Compound	IC50 (murine splenocytes) [µM]	Effect on splenocyte proliferation (counts per minute vs concentration, FIG. 1 and 2) (murine splenocytes)	AI activity (autoinducer activity, percentage of the bioluminescence measured after exposure to OdDHL) [1] [%]	Effect on ConA mitogen stimulated proliferation of murine spleen cells (murine spleen cells)	Effect on TNF-α production by LPS-stimulated adherent murine peritoneal macrophages [2]
CCCCCCCCNC(=O)CC(=O)N[C@H]1CCOC1=O [Example 4-aza-OdDHL, N-(4-aza-3-oxododecanoyl)-L-homoserine lactone]	17.1	inhibits splenocyte proliferation	2.8		
CCCCCCCCNC(=O)C(F)C(=O)N[C@H]1CCOC1=O (stereo partly drawn) [2-fluoro-4-aza-OdDHL, 4-Aza-2-fluoro-3-oxododecanoyl-L-homoserine lactone]	21.8		19.9		
CCCCCCCCCC(=O)CC(=O)N[C@H]1CCOC1=O [OdDHL, N-(3-oxododecanoyl) homoserine lactone, reference compound]	12.7	inhibits splenocyte proliferation	100.0	inhibiting	inhibiting
CCCCCCCCN(C)C(=O)CC(=O)N[C@H]1CCOC1=O [4-methyl-4-aza-OdDHL, N-(4-aza-4-methyl-3-oxododecanoyl)-L-homoserine lactone]	14.6	inhibits splenoctye proliferation	23.2		
